We go through 4 compounds from US11173144B2, “Adrenergic receptor modulating compounds and methods of using the same” (The Board of Trustees of the Leland Stanford Junior …, priority 2016, dated 2021).

Data set [1] is described as follows: Body weight changes on chronic administration in mice. It counts as in vivo. The settings on record: 10 mg/kg subcutaneous. The procedure: Transgenic mice expressing amyloid beta protein precursor (APP) and wild-type mice were chronically administered with KSN01-01-18 (10 mg/kg, subcutaneous). Changes on body weight were recorded. Effects of KSN01-01-18 on cognitive function were evaluated in Morris water maze (MWM). Briefly, In the MWM, a large water tank (178 cm in diameter) filled with water was used. A circular platform was placed about 1 cm below the water surface approximately 17 cm away from the wall in one 20 quadrant of the tank. Nontoxic tempera paints were used to make the water opaque. During the consecutive days of hidden platform training, mice were released from drop locations and given 60 sec to find the platform. Upon completion of the hidden platform training, the platform was removed and a 60-sec probe trial was conducted. Successful learning of MWM was determined by the gradual decrease in escape latency during the hidden platform training and discriminative quadrant exploration and latency to reach virtual platform during the probe trial.

Data set [2] has as its system Transgenic mice expressing amyloid beta protein precursor (APP). Put plainly: Morris water maze in transgenic mice expressing amyloid beta protein precursor (APP). Format: in vivo. The settings on record: 10 mg/kg subcutaneous, chronic. Here is the method: Mice are tested in a large water tank (178 cm in diameter; 22.0±1.5° C.) with a submerged 17 cm diameter circular platform (˜1 cm below the water surface and ˜50 cm away from the wall). Non-toxic tempera paints (Elmers) are used to make the water opaque. Privacy blinds with four different visual cues surrounded the tank and are located ˜150 cm from the center of the tank. Testing is performed under dim white light (40 Lux at the water surface). Activity is monitored with Ethovision via an overhead video system. Mice complete 4-6 days of hidden platform training (60 seconds to locate the platform when released from a pseudorandomized drop location). […] Successful leaming of MWM is determined by reduced escape latency and discriminative quadrant exploration during the probe trial. […]
Transgenic mice expressing amyloid beta protein precursor (APP) and wild-type mice were chronically administered with KSN01-01-18 (10 mg/kg, subcutaneous). Changes on body weight were recorded. Effects of KSN01-01-18 on cognitive function were evaluated in Morris water maze (MWM). […] Successful learning of MWM was determined by the gradual decrease in escape latency during the hidden platform training and discriminative quadrant exploration and latency to reach virtual platform during the probe trial.

The subject of a further data set is C57BI/6J female mice. Description: 24 day administration, lung and heart weight and fibrosis. Format: in vivo. As to conditions: 10 mg/kg for 24 days. Here is the method:
C57BI/6J female mice were administered with isoproterenol, KSN01-01-15, or KSN01-01-18 at 10 mg/kg for 24 days. After 24 days of treatment, mice were sacrificed, and lung and heart weight were measured. Hearts were then fixed in 10% formalin, and stained with Masson trichrome for evaluation of fibrosis.

Data set [3] in a line: Plasma versus brain concentration after subcutaneous administration in mice. As to conditions: mouse, in vivo. The procedure:
The concentration of selected compounds in plasma (FIG. 8A) versus concentration in brain (FIG. 8A) was assessed after administration in a mice. Briefly, mice are administered with selected compounds via subcutaneous route. Thirty minutes after the compound administration, plasma and brain samples are collected. Concentrations of the selected compounds in plasma and brains are determined by LC/MS/MS.

Data set [4] has as its system LPS-induced TNF-α production in primary microglia. Put plainly: In vitro primary microglia TNF-α assay (LPS stimulation, ELISA). It counts as cell-based, rat. The settings on record: 4 h. From the text: Mixed glial cells are obtained from the cerebral cortex of Sprague Dawley rat pups at postnatal days 1-3. Briefly, neonates are euthanized by decapitation and their brain tissues are collected for isolation of cortex. The isolated cortex was then trypsinized, triturated, and placed onto tissue culture flasks in DMEM supplemented with 10% fetal bovine serum and 1% Penicillin/Streptomycin. After 10 days in vitro, microglia are harvested by gentle shaking of the growth flask, plated in a 96 well plate at a density of 30,000 cells/well, and incubated at 37° C. overnight. […] Following the 4 h incubation, cell media is collected and the concentration of TNF-α is measured by ELISA (Invitrogen, KRC3011) according to the manufacturer's instruction.
The effects of selected compounds on cellular inflammatory response to LPS are determined in primary microglia extracted from a rat. Briefly, mixed glial cells are obtained from the cerebral cortex of Sprague Dawley rat pups at postnatal days 1-3 and cultured in DMEM supplemented with 10% fetal bovine serum. After 7 days in vitro, microglia are harvested by gentle shaking of the growth flask and plated in a 96 well plate at the density of 3×10^4 cells/well. The cells are used following day. Effects of compounds on LPS-induced TNFα production are determined by incubating cells with LPS along with or without test compounds for 4 hours. Following the 4 hour incubation, cell media are collected and concentration of TNFα was measured by EUSA.
(In general: An ELISA detects its analyte on a solid surface through an enzyme-linked reagent.)

Data set [5] relates to LPS-induced TNF-α response. Description: In vivo LPS assay. Also on record: species or system C57BI/6J mice. The settings on record: mice, 3 mg/kg 15 min prior to LPS, 90 min post-LPS. The procedure: Amplification is performed using StepOnePlus (Applied Biosystems).
Following injections, mice are single-housed. At 90 min post-LPS/saline, mice are deeply anesthetized with isoflurane and blood is collected from the right ventricle via cardiac puncture (23 g needle) into lithium heparin-containing vials (BD microtainer plasma tubes). Plasma is separated by centrifugation (11,000 rpm for 3 minutes) within 30 min of collection and stored at −80° C. until analysis. The concentration of TNF-α in the collected plasma is measured by ELISA (Invitrogen, KMC3012) according to the manufacturer's instruction.

Data set [6] deals with panel of CNS relevant targets, including G-protein coupled receptor and transporters. Description: Screen against a panel of CNS relevant targets (off-target affinity). Format: binding. The settings on record: broad range of neurotransmitter transporters, ion channels and other CNS proteins. From the text:
From a drug development perspective, characterizing the off-target effects of lead compounds is an important issue, as interactions with off-target molecules may lead to undesirable side effects. Thus we screened xamoterol (S) and the key compound compound 43 against a panel of CNS relevant targets, including G-protein coupled receptor and transporters. […].

A value given as a limit tells only on which side of the number the result lay.

For `Cc1n[nH]c2cccc(OC[C@@H](O)CNCc3ccn(C)n3)c12` [Compound 92], in data set [1], the “general toxicity as measured by changes in body weight” value is “does not cause general toxicity”. The “cognitive function in Morris water maze (time to find the virtual platform)” value in data set [2] is recorded as “cognitive enhancing effects”. In addition, in the data set with C57BI/6J female mice, the “fibrotic changes in heart and heart weight” value was “did not induce these changes”; the “fibrotic changes in lung and lung weight” value is given as “did not induce these changes”; the “morphological changes in heart” value is recorded as “did not induce these changes”.
With `Cc1n[nH]c2cccc(OC[C@@H](O)CNCCNC(=O)N3CCOCC3)c12` [Compound 38], the “crossing the blood brain barrier” value in data set [3] is reported as “not capable of crossing the blood brain barrier”.
Take `CC(C)NCC(O)c1ccc(O)c(O)c1` (centres unmarked) [isoproterenol, reference compound]: in data set [4] (Rattus norvegicus, Microglia, read-out: inhibition of LPS-induced TNF-α production), the inhibition (commonly the share of the control response that was lost under treatment) at 10 µM was found to be 85%. Also, in the data set with C57BI/6J female mice, the “fibrotic changes in heart and heart weight” value is “induces fibrotic changes in heart and increases heart weight”; the “fibrotic changes in lung and lung weight” value was “induces fibrotic changes in lung and increases lung weight”; the “morphological changes in heart” value is recorded as “produces morphological changes in heart”.
Take `O=C(NCCNC[C@H](O)COc1ccc(O)cc1)N1CCOCC1` [(S)-Xamoterol, reference compound]: in data set [5], the “LPS-induced TNF-α response in periphery (plasma)” value was “markedly inhibited” and the “LPS-induced inflammatory response in the brain (TNF-α, IL-1β, IL-6 gene expression)” value is recorded as “attenuated”. For the same compound, the Ki – broadly, a measure of affinity in units of concentration, obtained from inhibition or displacement – in data set [6] was > 10 µM. The “inhibition of LPS-induced TNF-α production” value in data set [4] (rat primary microglia, LPS 10 ng/ml, compound 10 μM) was “approximately 60%”.
